According to paper PMC10424178, “Discovery of 5-Phenylpyrazolopyrimidinone Analogs as Potent Antitrypanosomal Agents with In Vivo Efficacy” (Journal of Medicinal Chemistry, 2023):
“Also recorded” adds a separate entry of the source.

What was measured:
T. b. brucei [1] = assay: Antitrypanosomal assay, T. brucei Squib 427, resazurin viability; format: cell-based; settings: for times more potent than 1 against T. b. brucei: relative to 1
PDE5 = PDE5 (Homo sapiens, UniProt O76074); assay: PDE5 inhibition; format: biochemical
T. b. brucei [2] = assay: Acute (stage-I) mouse model of T. b. brucei infection; format: in vivo
TbrPDEB1 = TbrPDEB1 (Trypanosoma brucei, UniProt Q8WQX9); assay: TbrPDEB1 enzyme assay (PDELight HTS cAMP phosphodiesterase kit); format: biochemical, T. brucei
human PDE4D2 = human PDE4D2 (Homo sapiens, UniProt Q08499); assay: Eurofins Safety-47 panel, PDE4D2; settings: read-out: inhibition of human PDE4D2
human PDE4D2, sequence (Q08499 303-809): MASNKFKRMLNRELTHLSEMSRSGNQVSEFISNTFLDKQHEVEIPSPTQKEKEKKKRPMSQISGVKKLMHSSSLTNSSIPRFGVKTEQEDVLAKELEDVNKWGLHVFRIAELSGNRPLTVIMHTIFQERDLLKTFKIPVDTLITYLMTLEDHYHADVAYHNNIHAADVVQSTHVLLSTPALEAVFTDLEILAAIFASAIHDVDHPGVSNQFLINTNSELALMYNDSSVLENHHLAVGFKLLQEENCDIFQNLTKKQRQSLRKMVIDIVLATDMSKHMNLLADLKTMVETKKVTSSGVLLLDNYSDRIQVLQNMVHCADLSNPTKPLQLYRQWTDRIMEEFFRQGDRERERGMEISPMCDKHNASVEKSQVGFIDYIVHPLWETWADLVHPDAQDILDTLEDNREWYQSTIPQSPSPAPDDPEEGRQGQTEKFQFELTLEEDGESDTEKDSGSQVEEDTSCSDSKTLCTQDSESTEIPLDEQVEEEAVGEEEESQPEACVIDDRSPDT

TbrPDEB1, sequence (Q8WQX9 entry or part of it): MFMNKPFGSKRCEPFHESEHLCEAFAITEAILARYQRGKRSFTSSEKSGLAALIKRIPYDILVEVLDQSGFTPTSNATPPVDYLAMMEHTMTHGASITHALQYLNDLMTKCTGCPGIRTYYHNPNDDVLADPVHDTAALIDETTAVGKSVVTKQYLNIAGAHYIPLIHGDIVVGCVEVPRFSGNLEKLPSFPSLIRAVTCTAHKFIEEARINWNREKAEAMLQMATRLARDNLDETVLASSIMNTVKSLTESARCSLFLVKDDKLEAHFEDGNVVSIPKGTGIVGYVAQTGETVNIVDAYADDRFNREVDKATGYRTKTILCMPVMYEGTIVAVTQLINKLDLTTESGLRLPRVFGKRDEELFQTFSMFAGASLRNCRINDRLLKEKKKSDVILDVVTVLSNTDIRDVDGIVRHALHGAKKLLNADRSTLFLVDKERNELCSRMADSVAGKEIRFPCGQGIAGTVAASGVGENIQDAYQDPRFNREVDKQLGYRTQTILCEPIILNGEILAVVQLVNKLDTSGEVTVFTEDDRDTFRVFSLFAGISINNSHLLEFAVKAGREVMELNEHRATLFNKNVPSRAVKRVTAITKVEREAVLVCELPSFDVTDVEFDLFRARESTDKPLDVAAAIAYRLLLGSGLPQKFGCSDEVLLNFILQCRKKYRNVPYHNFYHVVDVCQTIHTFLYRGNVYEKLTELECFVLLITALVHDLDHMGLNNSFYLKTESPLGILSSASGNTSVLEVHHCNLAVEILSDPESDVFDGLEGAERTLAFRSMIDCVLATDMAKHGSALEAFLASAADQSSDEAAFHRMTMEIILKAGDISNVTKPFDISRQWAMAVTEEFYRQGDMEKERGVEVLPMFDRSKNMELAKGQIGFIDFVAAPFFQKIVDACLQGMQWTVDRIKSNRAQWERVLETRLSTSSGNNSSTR

Structure (SMILES): CC(C)c1n[nH]c2c(=O)[nH]c(-c3ccccc3)nc12 [compound 15, 3-Isopropyl-5-phenyl-1,6-dihydro-7H-pyrazolo[4,3-d]pyrimidin-7-one]
- times more potent than 1 against T. b. brucei (T. b. brucei [1]): 125 times

Structure (SMILES): CC(C)c1n[nH]c2c(=O)[nH]c(-c3ccncc3)nc12 [compound 16, 3-Isopropyl-5-(pyridin-4-yl)-1,6-dihydro-7H-pyrazolo[4,3-d]pyrimidin-7-one]
- times more potent than 1 against T. b. brucei (T. b. brucei [1]): 16 times

Structure (SMILES): COc1ccccc1-c1nc2c(C(C)C)n[nH]c2c(=O)[nH]1 [compound 22, 3-Isopropyl-5-(2-methoxyphenyl)-1,6-dihydro-7H-pyrazolo[4,3-d]pyrimidin-7-one]
- reduction in potency against T. b. brucei compared with 15 (T. b. brucei [1]; relative to 15): 25 fold

Structure (SMILES): CC(C)c1n[nH]c2c(=O)[nH]c(-c3ccc(F)cc3)nc12 [compound 30, 5-(4-Fluorophenyl)-3-isopropyl-1,6-dihydro-7H-pyrazolo[4,3-d]pyrimidin-7-one]
- inhibition at 10 µM (PDE5): 52%
- time by which all animals relapsed and succumbed (T. b. brucei [2]; 25 mg/kg b.i.d. for 5 days): ≤ 11 dpi
- outcome of treatment (parasitemia / cure) (T. b. brucei [2]; 50 mg/kg PO twice daily for 5 consecutive days, follow-up 60 dpi): all infected mice were cured; also recorded: apparent full clearance of parasitemia; also recorded: complete cure
- TbrPDEB1 inhibition pKi (TbrPDEB1): inactive
- inhibition at 10 µM (human PDE4D2): 75%

Structure (SMILES): CC(C)c1n[nH]c2c(=O)[nH]c(-c3ccc(N4CCN(C)CC4)cc3)nc12 [compound 45, 3-Isopropyl-5-(4-(4-methylpiperazin-1-yl)phenyl)-1,6-dihydro-7H-pyrazolo[4,3-d]pyrimidin-7-one]
- IC50 (T. b. brucei [1]; Trypanosoma brucei, T. brucei Squib 427 strain, 72 h drug exposure, highest concentration 64 μM, mean of at least two independent experiments, read-out: T. b. brucei pIC50 (converted)): 20 µM
